tested on: Hepatitis C virus; assay: Antiviral activity against HCV Con1 GT1b by replicon assay; type: functional, organism-based, Hepacivirus hominis; conditions: not given

Compound | EC50
CC(C)OC(=O)CNP(=O)(OC[C@@]1(N=[N+]=[N-])O[C@@H](n2ccc(N)nc2=O)[C@H](O)[C@@H]1O)Oc1ccccc1 (some centres not stated) | 4.5 µM
C[C@H](NP(=O)(OC[C@@]1(N=[N+]=[N-])O[C@@H](n2ccc(N)nc2=O)[C@H](O)[C@@H]1O)Oc1cccc2ccccc12)C(=O)OCc1ccccc1 (some centres not stated) | 0.95 µM
CC(C)OC(=O)CNP(=O)(OC[C@@]1(N=[N+]=[N-])O[C@@H](n2ccc(N)nc2=O)[C@H](O)[C@@H]1O)Oc1ccccc1 (single isomer, unassigned; Diastereomer 1) | 15 µM
C[C@H](NP(=O)(OC[C@@]1(N=[N+]=[N-])O[C@@H](n2ccc(N)nc2=O)[C@H](O)[C@@H]1O)Oc1ccc2ccccc2c1)C(=O)OCc1ccccc1 (single isomer, unassigned; diastereomer 1) | 4.3 µM

same assay, conditions: Hepatitis C virus, Con1 GT1b

Compound | EC50 | IC50
CCOC(=O)[C@H](Cc1ccccc1)NP(=O)(OC[C@@]1(N=[N+]=[N-])O[C@@H](n2ccc(N)nc2=O)[C@H](O)[C@@H]1O)Oc1ccccc1 (some centres not stated) | 11 µM | 
C[C@H](NP(=O)(OC[C@@]1(N=[N+]=[N-])O[C@@H](n2ccc(N)nc2=O)[C@H](O)[C@@H]1O)Oc1ccccc1Cl)C(=O)OCc1ccccc1 (some centres not stated) | 3.5 µM | 
CCOC(=O)CN(C)P(=O)(OC[C@@]1(N=[N+]=[N-])O[C@@H](n2ccc(N)nc2=O)[C@H](O)[C@@H]1O)Oc1ccccc1 (some centres not stated) |  | 48 µM
COC(=O)[C@H](C)NP(=O)(OC[C@@]1(N=[N+]=[N-])O[C@@H](n2ccc(N)nc2=O)[C@H](O)[C@@H]1O)Oc1ccccc1 (some centres not stated) | 3.1 µM | 
[N-]=[N+]=N[C@]1(COP(=O)(NCC(=O)OCc2ccccc2)Oc2ccccc2)O[C@@H](n2ccc(N)nc2=O)[C@H](O)[C@@H]1O (some centres not stated) | 2.1 µM | 
[N-]=[N+]=N[C@]1(COP(=O)(N[C@@H](Cc2ccccc2)C(=O)OCc2ccccc2)Oc2ccccc2)O[C@@H](n2ccc(N)nc2=O)[C@H](O)[C@@H]1O (some centres not stated) |  | 7.7 µM
CC(C)OC(=O)[C@H](C)NP(=O)(OC[C@@]1(N=[N+]=[N-])O[C@@H](n2ccc(N)nc2=O)[C@H](O)[C@@H]1O)Oc1ccccc1 (some centres not stated) | 0.99 µM | 
CC(C)(NP(=O)(OC[C@@]1(N=[N+]=[N-])O[C@@H](n2ccc(N)nc2=O)[C@H](O)[C@@H]1O)Oc1ccccc1)C(=O)OCc1ccccc1 (some centres not stated) | 9.2 µM | 
CCOC(=O)[C@H](C)NP(=O)(OC[C@@]1(N=[N+]=[N-])O[C@@H](n2ccc(N)nc2=O)[C@H](O)[C@@H]1O)Oc1ccccc1 (some centres not stated) | 0.38 µM | 
CCOC(=O)[C@H](CC(C)C)NP(=O)(OC[C@@]1(N=[N+]=[N-])O[C@@H](n2ccc(N)nc2=O)[C@H](O)[C@@H]1O)Oc1ccc(Cl)c(Cl)c1 (some centres not stated) | 2.3 µM | 
CC(C)OC(=O)C(C)(C)NP(=O)(OC[C@@]1(N=[N+]=[N-])O[C@@H](n2ccc(N)nc2=O)[C@H](O)[C@@H]1O)Oc1ccccc1 (some centres not stated) | 3.1 µM | 
CCOC(=O)[C@H](CCSC)NP(=O)(OC[C@@]1(N=[N+]=[N-])O[C@@H](n2ccc(N)nc2=O)[C@H](O)[C@@H]1O)Oc1ccccc1 (some centres not stated) | 18 µM | 
C[C@H](NP(=O)(OC[C@@]1(N=[N+]=[N-])O[C@@H](n2ccc(N)nc2=O)[C@H](O)[C@@H]1O)Oc1ccc(Br)cc1)C(=O)OCc1ccccc1 (some centres not stated) | 6.5 µM | 
CC(C)C[C@@H](NP(=O)(OC[C@@]1(N=[N+]=[N-])O[C@@H](n2ccc(N)nc2=O)[C@H](O)[C@@H]1O)Oc1ccccc1)C(=O)OCc1ccccc1 (some centres not stated) |  | 4.2 µM
C[C@H](NP(=O)(OC[C@@]1(N=[N+]=[N-])O[C@@H](n2ccc(N)nc2=O)[C@H](O)[C@@H]1O)Oc1ccccc1)C(=O)OC(C)(C)C (some centres not stated) | 0.72 µM | 
C[C@@H](NP(=O)(OC[C@@]1(N=[N+]=[N-])O[C@@H](n2ccc(N)nc2=O)[C@H](O)[C@@H]1O)Oc1ccccc1)C(=O)OC(C)(C)C (some centres not stated) | > 100 µM | 
CCOC(=O)CC[C@H](NP(=O)(OC[C@@]1(N=[N+]=[N-])O[C@@H](n2ccc(N)nc2=O)[C@H](O)[C@@H]1O)Oc1ccccc1)C(=O)OCC (some centres not stated) |  | 44 µM
COc1cccc(OP(=O)(N[C@@H](C)C(=O)OCc2ccccc2)OC[C@@]2(N=[N+]=[N-])O[C@@H](n3ccc(N)nc3=O)[C@H](O)[C@@H]2O)c1 (some centres not stated) | 8.8 µM | 
CCOC(=O)[C@H](CC(C)C)NP(=O)(OC[C@@]1(N=[N+]=[N-])O[C@@H](n2ccc(N)nc2=O)[C@H](O)[C@@H]1O)Oc1ccc(C)cc1 (some centres not stated) | 4.3 µM | 
C[C@H](NP(=O)(OC[C@@]1(N=[N+]=[N-])O[C@@H](n2ccc(N)nc2=O)[C@H](O)[C@@H]1O)Oc1ccc(Cl)cc1)C(=O)OCc1ccccc1 (some centres not stated) | 6.2 µM | 
CCCCOC(=O)[C@H](C)NP(=O)(OC[C@@]1(N=[N+]=[N-])O[C@@H](n2ccc(N)nc2=O)[C@H](O)[C@@H]1O)Oc1ccccc1 (some centres not stated) | 11 µM | 
CCOC(=O)CCNP(=O)(OC[C@@]1(N=[N+]=[N-])O[C@@H](n2ccc(N)nc2=O)[C@H](O)[C@@H]1O)Oc1ccccc1 (some centres not stated) |  | 47 µM
CCC(C)OC(=O)[C@H](C)NP(=O)(OC[C@@]1(N=[N+]=[N-])O[C@@H](n2ccc(N)nc2=O)[C@H](O)[C@@H]1O)Oc1ccccc1 (some centres not stated) | 0.62 µM | 
[N-]=[N+]=N[C@]1(CO)O[C@@H](n2ccc(N)nc2=O)[C@H](O)[C@@H]1O [4'-AZIDOCYTIDINE] | 1.28 µM | 

Compound | EC50 | IC50
C[C@H](NP(=O)(OC[C@@]1(N=[N+]=[N-])O[C@@H](n2ccc(N)nc2=O)[C@H](O)[C@@H]1O)Oc1ccc(Cl)c(Cl)c1)C(=O)OCc1ccccc1 (some centres not stated) | 9.2 µM | 
C[C@H](NP(=O)(OC[C@@]1(N=[N+]=[N-])O[C@@H](n2ccc(N)nc2=O)[C@H](O)[C@@H]1O)Oc1cccc(Cl)c1)C(=O)OCc1ccccc1 (some centres not stated) | 3.7 µM | 
CCOC(=O)[C@H](CC(C)C)NP(=O)(OC[C@@]1(N=[N+]=[N-])O[C@@H](n2ccc(N)nc2=O)[C@H](O)[C@@H]1O)Oc1ccc(Cl)cc1 (some centres not stated) | 2.5 µM | 
C[C@H](NP(=O)(OC[C@@]1(N=[N+]=[N-])O[C@@H](n2ccc(N)nc2=O)[C@H](O)[C@@H]1O)Oc1ccccc1)C(=O)OCc1ccccc1 (some centres not stated) | 6 µM | 
C[C@H](NP(=O)(OC[C@@]1(N=[N+]=[N-])O[C@@H](n2ccc(N)nc2=O)[C@H](O)[C@@H]1O)Oc1cccc2ccccc12)C(=O)OCc1ccccc1 (single isomer, unassigned; diastereomer 2) | 1.2 µM | 
CCCCOC(=O)[C@@H](C)NP(=O)(OC[C@@]1(N=[N+]=[N-])O[C@@H](n2ccc(N)nc2=O)[C@H](O)[C@@H]1O)Oc1ccccc1 (some centres not stated) | 0.94 µM | 
CC(C)OC(=O)[C@H](Cc1ccccc1)NP(=O)(OC[C@@]1(N=[N+]=[N-])O[C@@H](n2ccc(N)nc2=O)[C@H](O)[C@@H]1O)Oc1ccccc1 (some centres not stated) | 2.9 µM | 
C[C@@H](NP(=O)(OC[C@@]1(N=[N+]=[N-])O[C@@H](n2ccc(N)nc2=O)[C@H](O)[C@@H]1O)Oc1ccccc1)C(=O)OCc1ccccc1 (some centres not stated) | 2.2 µM | 
CCOC(=O)[C@@H](NP(=O)(OC[C@@]1(N=[N+]=[N-])O[C@@H](n2ccc(N)nc2=O)[C@H](O)[C@@H]1O)Oc1ccccc1)[C@@H](C)CC (some centres not stated) | > 100 µM | 
CCOC(=O)[C@H](C)NP(=O)(OC[C@@]1(N=[N+]=[N-])O[C@@H](n2ccc(N)nc2=O)[C@H](O)[C@@H]1O)Oc1ccc(C)cc1 (some centres not stated) | 2.9 µM | 
COc1ccccc1OP(=O)(N[C@@H](C)C(=O)OCc1ccccc1)OC[C@@]1(N=[N+]=[N-])O[C@@H](n2ccc(N)nc2=O)[C@H](O)[C@@H]1O (some centres not stated) | 2.3 µM | 
CCOC(=O)[C@H](C)NP(=O)(OC[C@@]1(N=[N+]=[N-])O[C@@H](n2ccc(N)nc2=O)[C@H](O)[C@@H]1O)Oc1c(OC)cccc1OC (some centres not stated) | 4.1 µM | 
Cc1ccc(OP(=O)(N[C@@H](C)C(=O)OCc2ccccc2)OC[C@@]2(N=[N+]=[N-])O[C@@H](n3ccc(N)nc3=O)[C@H](O)[C@@H]2O)cc1 (some centres not stated) | 0.51 µM | 
C[C@H](NP(=O)(OC[C@@]1(N=[N+]=[N-])O[C@@H](n2ccc(N)nc2=O)[C@H](O)[C@@H]1O)Oc1ccccc1)C(=O)Oc1ccccc1 (some centres not stated) | 2.9 µM | 
COc1ccc(OP(=O)(N[C@@H](C)C(=O)OCc2ccccc2)OC[C@@]2(N=[N+]=[N-])O[C@@H](n3ccc(N)nc3=O)[C@H](O)[C@@H]2O)cc1 (some centres not stated) | > 100 µM | 
CC(C)[C@H](NP(=O)(OC[C@@]1(N=[N+]=[N-])O[C@@H](n2ccc(N)nc2=O)[C@H](O)[C@@H]1O)Oc1ccccc1)C(=O)OCc1ccccc1 (some centres not stated) | 5.6 µM | 
CCOC(=O)[C@H](CC(C)C)NP(=O)(OC[C@@]1(N=[N+]=[N-])O[C@@H](n2ccc(N)nc2=O)[C@H](O)[C@@H]1O)Oc1ccccc1 (some centres not stated) | 11 µM | 
Cc1ccccc1OP(=O)(N[C@@H](C)C(=O)OCc1ccccc1)OC[C@@]1(N=[N+]=[N-])O[C@@H](n2ccc(N)nc2=O)[C@H](O)[C@@H]1O (some centres not stated) | 1.3 µM | 
CCCCCCCCCCCCOC(=O)[C@@H](C)NP(=O)(OC[C@@]1(N=[N+]=[N-])O[C@@H](n2ccc(N)nc2=O)[C@H](O)[C@@H]1O)Oc1ccccc1 (some centres not stated) | 30 µM | 
CCOC(=O)[C@@H]1CCCN1P(=O)(OC[C@@]1(N=[N+]=[N-])O[C@@H](n2ccc(N)nc2=O)[C@H](O)[C@@H]1O)Oc1ccccc1 (some centres not stated) | > 100 µM | 
CCOC(=O)[C@@H](C)NP(=O)(OC[C@@]1(N=[N+]=[N-])O[C@@H](n2ccc(N)nc2=O)[C@H](O)[C@@H]1O)Oc1ccccc1 (some centres not stated) | 2.3 µM | 
C[C@H](NP(=O)(OC[C@@]1(N=[N+]=[N-])O[C@@H](n2ccc(N)nc2=O)[C@H](O)[C@@H]1O)Oc1ccc2ccccc2c1)C(=O)OCc1ccccc1 (single isomer, unassigned; diastereomer 2) | 2.9 µM | 
CCOC(=O)[C@H](CC(C)C)NP(=O)(OC[C@@]1(N=[N+]=[N-])O[C@@H](n2ccc(N)nc2=O)[C@H](O)[C@@H]1O)Oc1ccc(OC)cc1 (some centres not stated) | 9.3 µM | 
CC(C)C[C@H](NP(=O)(OC[C@@]1(N=[N+]=[N-])O[C@@H](n2ccc(N)nc2=O)[C@H](O)[C@@H]1O)Oc1ccccc1)C(=O)OC(C)C (some centres not stated) | > 100 µM | 

tested on: Hepatitis C virus; assay: Antiviral activity against HCV Con1 GT1b at 100 uM by replicon assay; type: functional, Hepacivirus hominis; conditions: not given

Compound | inhibition at 100 µM
CCOC(=O)CN(C)P(=O)(OC[C@@]1(N=[N+]=[N-])O[C@@H](n2ccc(N)nc2=O)[C@H](O)[C@@H]1O)Oc1ccccc1 (some centres not stated) | 72%
[N-]=[N+]=N[C@]1(COP(=O)(N[C@@H](Cc2ccccc2)C(=O)OCc2ccccc2)Oc2ccccc2)O[C@@H](n2ccc(N)nc2=O)[C@H](O)[C@@H]1O (some centres not stated) | 89%
CC(C)C[C@@H](NP(=O)(OC[C@@]1(N=[N+]=[N-])O[C@@H](n2ccc(N)nc2=O)[C@H](O)[C@@H]1O)Oc1ccccc1)C(=O)OCc1ccccc1 (some centres not stated) | 88%
CCOC(=O)CC[C@H](NP(=O)(OC[C@@]1(N=[N+]=[N-])O[C@@H](n2ccc(N)nc2=O)[C@H](O)[C@@H]1O)Oc1ccccc1)C(=O)OCC (some centres not stated) | 74%
CCOC(=O)CCNP(=O)(OC[C@@]1(N=[N+]=[N-])O[C@@H](n2ccc(N)nc2=O)[C@H](O)[C@@H]1O)Oc1ccccc1 (some centres not stated) | 77%

Source: ChEMBL document CHEMBL1152361, “The application of phosphoramidate ProTide technology to the potent anti-HCV compound 4'-azidocytidine (R1479)” (Bioorg Med Chem Lett, 2009)
